The values below come from US5256668A, “Aminopyrimidine derivatives as antiviral agents for respiratory syncytial virus” (American Home Products Corporation, priority 1993, dated 1993).

≈ marks a conversion by molar mass, not a printed value. Read-outs that look alike come from different tables or passages of the source.

Series [1] in a line: Cellular toxicity, minimal toxic dose that inhibits all growth, Vero. The series is classed as cell-based. Conditions: monkey, vero cells. As for the experimental part: (§1) The cytotoxic activities for the compounds of Examples 1 and 2, amantadine and ribavirin were determined in five different cell lines.
Series [2] in a line: Cellular toxicity, minimal toxic dose that inhibits all growth, A549. The series is classed as cell-based. To be noted: human, a549 cells. The method, then:
as §1

Series [3] has as its system respiratory syncytial virus RSV-9320 (subgroup B). Briefly: Anti-RSV activity (RSV-9320) in HEp-2 cells. To be noted: for IC50: human respiratory syncytial virus; for activity against subgroup B (RSV-9320): in words. The series is classed as cell-based.
Series [4] relates to respiratory syncytial virus RSVA2 (subgroup A). Briefly: Anti-RSV activity (RSVA2) in HEp-2 cells, crystal violet staining of cytopathic effect. It counts as cell-based. Conditions: for EC50 / IC50: human respiratory syncytial virus; for EC50: read-out: Anti-RSVA2 ED50; for activity against subgroup A (RSVA2): in words.
Series [5] is described as follows: Cellular toxicity (TD50) in the anti-RSV test. Conditions: human, hep-2 cells.
Series [6] is described as follows: Cellular toxicity, minimal toxic dose that inhibits all growth, MDCK. The series is classed as cell-based, Canine. To be noted: dog. As for the experimental part: as §1
Series [7] is described as follows: Cellular toxicity, minimal toxic dose that inhibits all growth, HEp-2. It counts as cell-based. To be noted: human, hep-2 cells. The method, then:
as §1

The nature of series [8]: Cellular toxicity, minimal toxic dose that inhibits all growth, MRC-5. To be noted: human, mrc-5 cells. It counts as cell-based. As for the experimental part:
as §1

The next series can be described thus: in vitro. To be noted: human, hep-2 cells.
In a further series the test system is FluA/WSN. Briefly: Anti-flu activity against FluA/WSN in MDCK cells. It counts as cell-based, influenza A virus.
A short description of series [9]: Solubility at 100 μg/ml (footnote of Table 4). It counts as physicochemical. Conditions: footnote a of Table 4.
The mark [10] stands for this setting: Table 4, Vero, read-out: Minimal Toxic Dose that Inhibits All Growth, Vero.
Where [11] appears, read: Table 4, A549, read-out: Minimal Toxic Dose that Inhibits All Growth, A549.
The mark [12] stands for this setting: HEp-2, read-out: Median Inhibitory Concentration (IC50), RSV-9320.
The mark [13] stands for this setting: Table 4, MDCK, read-out: Minimal Toxic Dose that Inhibits All Growth, MDCK.
[14] abbreviates: Table 4, HEp-2, read-out: Minimal Toxic Dose that Inhibits All Growth, HEp-2.
The mark [15] stands for this setting: Table 4, MRC-5, read-out: Minimal Toxic Dose that Inhibits All Growth, MRC-5.
Setting [16] is: Table 3, HEp-2 cells, read-out: Median Inhibitory Concentration (IC50), RSV-9320.
Setting [17] is: 72 h, Table 2, HEp-2 cells, compound added 2 h before infection, 3 days.
The mark [18] stands for this setting: Table 3, HEp-2 cells, read-out: Median Inhibitory Concentration (IC50), RSVA2.

With `NC12CC3CC(CC(C3)C1)C2` [Amantadine, amantadine, reference compound], the MCC was 100 µg/mL in series [1] (setting [10]); over 100 µg/mL in [2] (setting [11]); over 100 µg/mL in [6] (setting [13]); 100 µg/mL in series [7] (setting [14]); 100 µg/mL in series [8] (setting [15]). Further, the IC50 in series [3] (setting [12]) came out at 16 µg/mL (≈ 106 µM). Moreover, the EC50 in [4] (HEp-2, 72 h) is 50 µg/mL (≈ 331 µM). Also, the cytotoxic concentration (CC50) (as a rule, the concentration giving 50% cytotoxicity) at 72 h in series [5] came to 100 µg/mL (≈ 661 µM).

In the case of `Cc1nc(=O)c(C#N)c(NCCc2cccnc2)[nH]1` [Compound 1], the MCC in series [1] is over 100 µg/mL; in series [2], over 100 µg/mL; in series [6] (mdck), over 100 µg/mL; in series [7], over 100 µg/mL; in [8], 100 µg/mL. In addition, the “activity against subgroup B (RSV-9320)” value in series [3] (HEp-2 cells) was “active”. In addition, the IC50 in [3] (setting [16]) and in [4] (setting [18]) was at most 0.16 µg/mL each time. The CC50 at 72 h in “in vitro” is over 16 µg/mL. Moreover, in the series on FluA/WSN, the “anti-flu activity against FluA/WSN” value is “inactive”. The “activity against subgroup A (RSVA2)” value in [4] (HEp-2 cells) was “active”. In addition, in series [4] (setting [17]), the EC50 was 0.05 µg/mL (≈ 0.196 µM).

On to `Cc1nc(=O)c(Br)c(NCc2cncc(C#N)c2)[nH]1` [Compound 2], for which the MCC in series [1] was over 50 µg/mL; in series [2], over 50 µg/mL; in series [6] (mdck), over 50 µg/mL; in series [7] it was 50 µg/mL; in series [8], over 50 µg/mL. Further, the “activity against subgroup B (RSV-9320)” value in series [3] (HEp-2 cells) is on record as “active”. The IC50 in [3] (setting [16]) and in series [4] (setting [18]) was at most 0.16 µg/mL in each case. The CC50 at 72 h in “in vitro” was over 16 µg/mL. Further, the “anti-flu activity against FluA/WSN” value in the series with FluA/WSN is “inactive”. Further, in series [4] (HEp-2 cells), the “activity against subgroup A (RSVA2)” value was “active”. Also, the EC50 in [4] (setting [17]) worked out at 0.05 µg/mL (≈ 0.156 µM). Also, the “solubility at 100 μg/ml” value in series [9] is listed as “Not completely soluble”.

The compound `CC(C)(C)c1nc(O)c(C#N)c(NCc2cccnc2)n1` [Compound 3] registered a CC50 at 72 h in the series “in vitro” of over 16 µg/mL. Also, the EC50 in series [4] (setting [17]) lay within 1.6 to 5 µg/mL (≈ 5.65 to 17.6 µM).

`Cc1nc(O)c(C#N)c(NCCc2ccncc2)n1` [Compound 4] displayed a CC50 at 72 h in the series “in vitro” of over 16 µg/mL. Also, the EC50 in [4] (setting [17]) came to 0.16 µg/mL (≈ 0.627 µM).

`Cc1nc(=O)c(C#N)c(NCc2ccccc2)[nH]1` [Compound 5] showed a CC50 at 72 h in the series “in vitro” of over 16 µg/mL. Also, in series [4] (setting [17]), the EC50 stood at 1.6 µg/mL (≈ 6.66 µM).

In the case of `Cc1nc(=O)c(C#N)c(NCCN(C)C)[nH]1` [Compound 6], in “in vitro”, the CC50 at 72 h was over 16 µg/mL. In addition, the EC50 in series [4] (setting [17]) was 5 µg/mL (≈ 22.6 µM).

Compound `Cc1nc(=O)c(C#N)c(NCCN2CCCC2)[nH]1` [Compound 7] showed a CC50 at 72 h in “in vitro” of 16 µg/mL (≈ 64.7 µM). The EC50 in series [4] (setting [17]) is 1.6 µg/mL (≈ 6.47 µM).

As for `Cc1nc(=O)c(Br)c(NCCc2cccnc2)[nH]1` [Compound 8], the CC50 at 72 h in the series “in vitro” is over 16 µg/mL. The EC50 in series [4] (setting [17]) amounted to 0.005 µg/mL (≈ 0.0162 µM).

In turn, `CCCN(CCC)CCNc1[nH]c(C)nc(=O)c1Br` [Compound 9] had a CC50 at 72 h in “in vitro” of over 16 µg/mL. The EC50 in series [4] (setting [17]) is 1.6 µg/mL (≈ 4.83 µM).

`Cc1nc(=O)c(Br)c(NCc2ccc3c(c2)OCO3)[nH]1` [Compound 10] gave a CC50 at 72 h in “in vitro” of over 16 µg/mL. Also, the EC50 in series [4] (setting [17]) is 0.05 µg/mL (≈ 0.148 µM).

The compound `Cc1nc(=O)c(Br)c(NCc2ccsc2)[nH]1` [Compound 11] showed a CC50 at 72 h in the series “in vitro” of over 16 µg/mL. Also, the EC50 in [4] (setting [17]) worked out at 0.5 µg/mL (≈ 1.67 µM).

The compound `C=CCOc1ccc(CCNc2[nH]c(C)nc(=O)c2Br)cc1OC` [Compound 12] yielded a CC50 at 72 h in “in vitro” of over 16 µg/mL. The EC50 in series [4] (setting [17]) turned out to be 0.5 µg/mL (≈ 1.27 µM).

As for `Cc1nc(=O)c(Cl)c(NCc2cncc(Br)c2)[nH]1` [Compound 13], the CC50 at 72 h in the series “in vitro” was over 16 µg/mL. Further, the EC50 in [4] (setting [17]) was found to be 0.016 µg/mL (≈ 0.0485 µM).

`COc1ccc(Br)cc1CCNc1[nH]c(C)nc(=O)c1Br` [Compound 14] had a CC50 at 72 h in “in vitro” of over 16 µg/mL. The EC50 in [4] (setting [17]) is 0.5 µg/mL (≈ 1.2 µM).

In turn, `Cc1nc(=O)c(F)c(NCc2cccnc2)[nH]1` [Compound 15] came in with a CC50 at 72 h in the series “in vitro” of over 16 µg/mL. Moreover, the EC50 in series [4] (setting [17]) was found to be 0.05 µg/mL (≈ 0.213 µM).

With `Cc1nc(=O)c(Br)c(NCCN(C)C)[nH]1` [Compound 16], the CC50 at 72 h in “in vitro” was over 16 µg/mL. In addition, the EC50 in series [4] (setting [17]) came to 0.16 µg/mL (≈ 0.582 µM).

In the case of `Cc1nc(NCc2cncc(Br)c2)c(Br)c(=O)[nH]1` [Compound 17], the half-maximal cytotoxic concentration (CC50) at 72 h in “in vitro” is over 16 µg/mL. Besides, the EC50 in series [4] (setting [17]) came out at 0.016 µg/mL (≈ 0.0428 µM).

For the compound `NC(=O)c1ncn([C@@H]2O[C@H](CO)[C@@H](O)[C@H]2O)n1` [Ribavirin, ribavirin, reference compound], the MCC in [1] (setting [10]) was found to be 100 µg/mL; in [2] (setting [11]), 100 µg/mL; in [6] (setting [13]), 100 µg/mL; in series [7] (setting [14]), 50 µg/mL; in series [8] (setting [15]) it was 100 µg/mL. The IC50 in series [3] (setting [12]) is 5 µg/mL (≈ 20.5 µM); in series [4] (HEp-2, read-out: Median Inhibitory Concentration (IC50), RSVA2), 1.6 to 5 µg/mL (≈ 6.55 to 20.5 µM). For the same compound, the EC50 in series [4] (HEp-2, 72 h) was 1.6 to 5 µg/mL (≈ 6.55 to 20.5 µM). It took 50 µg/mL (≈ 205 µM) to reach half-maximal cytotoxicity in series [5] (CC50 at 72 h).
